A short description of data set [1]: Inhibition of gamma-secretase expressed in CHO cells expressing human recombinant APP assessed as amyloid beta40 […]. In kind it is cell-based.
The subject of data set [2] is Mus musculus. Description: Reduction of amyloid beta42 level in Tg2576 mouse brain at 10 mg/kg, po after 4 hrs. Type of data set: functional. Further details: scale not given: the % may be the effect or the level left.
Data set [3] has as its system Mus musculus. Briefly: Reversal of cognitive deficits in contextual fear conditioning in Tg2576 mouse model at 10 mg/kg, po. In kind it is functional, organism-based. More on the design: dose 10 mg/kg.
Data set [4] concerns Mus musculus. Briefly: Reduction of amyloid beta40 level in Tg2576 mouse brain at 5 mg/kg, po after 4 hrs. Further details: scale not given: the % may be the effect or the level left. In kind it is functional.
Data set [5] has as its system Mus musculus. Briefly: Reduction of amyloid beta42 level in Tg2576 mouse brain at 5 mg/kg, po after 4 hrs. Type of data set: functional. More on the design: scale not given: the % may be the effect or the level left.
Data set [6] in a line: Selectivity ratio of EC50 for gamma-secretase to EC50 for mouse notch processing.
A short description of data set [7]: Metabolic stability in Tg2576 mouse microsomes assessed as half life. In kind it is ADME, Microsome.
The nature of data set [8]: Metabolic stability in rat microsomes assessed as half life. In kind it is ADME, Microsome.
The nature of data set [9]: Metabolic stability in dog microsomes assessed as half life. In kind it is ADME, Canis lupus familiaris, Microsome.
Data set [10] is described as follows: Metabolic stability in monkey microsomes assessed as half life. In kind it is ADME, Macaca mulatta, Microsome. To be noted: rhesus monkey.
The nature of data set [11]: Dissociation constant, pKa of the compound. Type of data set: physicochemical.
A further data set in a line: in vitro. The conditions noted are these: human, microsomes.
For data set [12], the system named is Mus musculus. Briefly: Reduction of amyloid beta40 level in Tg2576 mouse brain at 100 mg/kg, po after 4 hrs. Further details: scale not given: the % may be the effect or the level left. Type of data set: functional.
The subject of data set [13] is Mus musculus. Description: Reduction of amyloid beta42 level in Tg2576 mouse brain at 100 mg/kg, po after 4 hrs. Type of data set: functional. More on the design: scale not given: the % may be the effect or the level left.
Data set [14] in a line: Solubility in Phosal PG50/Tween-80/water. In kind it is physicochemical.
Data set [15] in a line: Membrane permeability by PAMPA assay. In kind it is ADME. To be noted: read-out: permeability.
The nature of data set [16]: Apparent permeability from apical to basolateral side in human Caco-2 cells. Type of data set: ADME, cell-based. (Caco-2 monolayers are a common model of the intestinal barrier.)
A short description of data set [17]: Apparent permeability from basolateral to apical side in human Caco-2 cells. In kind it is ADME, cell-based.
Data set [18] can be described thus: Ratio of drug level in brain to plasma in Tg2576 mouse model. In kind it is ADME.
For data set [19], the species on record is Mus musculus. Description: Reversal of cognitive deficits in contextual fear conditioning in Tg2576 mouse model. In kind it is functional, organism-based.

≈ marks a conversion by molar mass, not a printed value. Calls of active or inactive are those of the source. The rule behind the calls is not given here. Bounds are passed on as bounds.

Description for in vitro: Metabolic stability in human microsomes assessed as half life

Turning to `CC[C@H](C)[C@@H](CO)NS(=O)(=O)c1ccc(Br)cc1`, the IC50 (as a rule, the concentration that gives 50% inhibition) in [1] was 2210 nM. This compound displayed an Activity in the data set on Mus musculus [2] of 25%. Further, the result in the data set on Mus musculus [3] was Active.
Regarding `CC[C@H](C)[C@@H](CO)NS(=O)(=O)c1ccc(Cl)cc1`, in data set [1], the IC50 worked out at 5450 nM. Further, the Activity in the data set on Mus musculus [2] is recorded as 25%. The outcome with Mus musculus [3] was Active.
As to `O=S(=O)(N[C@H](CO)C(C(F)(F)F)C(F)(F)F)c1ccc(Cl)s1` [BEGACESTAT], the IC50 in data set [1] worked out at 15 nM. Further, the Activity in the data set on Mus musculus [4] is given as 37%; with Mus musculus [5] it was 25%. In [6], the Ratio EC50 was 14. Further, the half-life (usually how long it takes for the measured level to halve) was 48 min in data set [7]; 3 min in [8]; 31 min in data set [9]; 26 min in data set [10]; > 90 min in the data set “in vitro”. Moreover, in data set [11], the pKa (usually the pH at which an ionisable group is half protonated) amounted to 8.3.
Regarding `O=S(=O)(N[C@H](CO)C(CC(F)(F)F)CC(F)(F)F)c1ccc(Cl)s1`, the IC50 in data set [1] was determined as 16 nM. For the same compound, the Activity turned out to be 27% with Mus musculus [4] and 22% in the data set on Mus musculus [5]. Further, in [6], the Ratio EC50 turned out to be 15. For the same compound, the half-life in [7] was found to be 24 min; in data set [8], 8 min; in [9], 13 min; in data set [10], 5 min; in the data set “in vitro”, 8 min. This compound also returned a pKa in data set [11] of 8.9.
`CCC(CC)[C@@H](CO)NS(=O)(=O)c1ccc(Cl)cc1`: in data set [1], the IC50 turned out to be 294 nM. Besides, the Ratio EC50 in data set [6] turned out to be 14.
For `O=S(=O)(N[C@@H](CO)C(C(F)(F)F)C(F)(F)F)c1ccc(Cl)s1`, the IC50 in data set [1] was found to be 10700 nM. Further, in data set [6], the Ratio EC50 turned out to be 3.7.
For the compound `CCC(CC)[C@@H](CO)NS(=O)(=O)c1ccc(Cl)s1` [GSI-136], in data set [1], the IC50 amounted to 25 nM. Besides, the Activity in the data set on Mus musculus [12] and with Mus musculus [13] was 25% each time. Moreover, in data set [6], the Ratio EC50 was 10. In addition, in data set [14], the concentration in solution (solubility) came to 6700 µg/mL (≈ 21.5 mM). The Papp in [15] came out at 12.5 ×10⁻⁶ cm/s. For the same compound, in [16], the Papp A→B (usually how fast a substance crosses the layer from the apical side) came to 50 ×10⁻⁶ cm/s. For the same compound, in [17], the Papp B→A – broadly, the apparent permeability from the basolateral to the apical side of a cell layer – is 43 ×10⁻⁶ cm/s. The partition ratio (Kp) (as a rule, the ratio of the level in a tissue or fluid to that in plasma or blood) in data set [18] came out at 2. Besides, the results for the half-life (in data set [7]; in data set [8]; in “in vitro”) were 2 min, 1 min and 8 min, respectively. Further, the pKa in [11] worked out at 9.6.
In the case of `C[C@H](NC(=O)Cc1cc(F)cc(F)c1)C(=O)N[C@H](C(=O)OC(C)(C)C)c1ccccc1`, the Activity with Mus musculus [12] and in the data set on Mus musculus [13] was 25% throughout. Moreover, the result in the data set listed under Mus musculus [19] was Active.
For `CC[C@H](C)[C@@H](CO)NS(=O)(=O)c1ccc(Cl)s1`, the half-inhibitory concentration (IC50) in [1] was 297 nM.

For the origin of these results see ChEMBL document CHEMBL1140230, “Discovery of begacestat, a Notch-1-sparing gamma-secretase inhibitor for the treatment of Alzheimer's disease” (J Med Chem, 2008).
